Columns and labels:
[1] = after 60 days; cited from earlier work
[2] = system: L. pneumophila serogroup 1; conditions: ion used alone; cited from earlier work
MS2 bacteriophage = assay: Disinfection of seeded test waters, log reduction of MS2 virus; conditions: contact up to 24 hours
Klebsiella terrigena = assay: Disinfection of seeded test waters, log reduction of Klebsiella; conditions: seeded municipal water
MS2 = conditions: in 12 hours; cited from earlier work
poliovirus = conditions: in 12 hours; cited from earlier work

## silver ions
[1]
  share of initial input detectable in the test chambers: 44%
[2]
  contact time to achieve complete (6 log) inactivation of Legionella: 24 hours
MS2 bacteriophage; seeded municipal water
  reduction of MS2 virus: No effective reduction
MS2 bacteriophage; seeded untreated natural waters
  reduction of MS2 virus: No effective reduction
Klebsiella terrigena; 60 minute contact time
  log reduction of Klebsiella: 5 log

## [Cu+2] [copper ions]
MS2
  log inactivation of MS2: 4.0 log
poliovirus
  log inactivation of poliovirus: 1.3 log
[1]
  share of initial input detectable in the test chambers: 75%
[2]
  contact time to achieve complete (6 log) inactivation of Legionella: 2.5 hours
Klebsiella terrigena; 60 minute contact time
  log reduction of Klebsiella: less than 3 log
Klebsiella terrigena; 240 minutes contact time
  log reduction of Klebsiella: less than 5 log

Source: patent publication US7485259B2, “Organic compound and metal ion synergistic disinfection and purification system and method of manufacture” (priority 2003, dated 2009)
